# According to patent US4939125A, “Acyl derivatives of urdamycin A, their preparation and their use” (Hoechst Aktiengesellschaft, priority 1986, dated 1990):
# Legend:
# Format in all cases: cell-based
# [1] = system: L 1210 tumor cells; test: Proliferation experiment (MTT); conditions: carried out 4 times, deviation less than 15%; for IC50: Mus musculus, L1210, L 1210, 72 hours at 37° C., read-out: IC50, Proliferation test
# Procedure: L 1210 tumor cells at the exponential growth phase (5×10^3 cells/ml, Roswell Park Memorial Institute (RPMI) medium) were incubated in a microtiter plate with […] recesses for a period of 72 hours at 37° C., 5% of CO2 and 95% relative atmospheric humidity and various concentrations of the test substances from Examples 1 to 5 and also 5',3B,4B,4C,8-penta-O-acetylurdamycin A. After 65 hours, 50 μl of 3-(4,5-dimethylthiazol-2-yl)-2,5-diphenyltetrazolium bromide (MTT) (2.5 mg/ml of MIT in phosphate buffer saline (PBS)) were added. The MTT was reduced by living cells into the red, water-insoluble dyestuff formazan. After a further 7 hours, the supernatant medium was carefully removed. Formazan was dissolved by adding 100 μl of dimethyl sulfoxide per recess and subsequently shaking gently. The extinction of each recess was determined using a multisan 340 CC photometer (Messrs. Flow) at 491 nm. The results were determined from the extinction ratio of cells with test substance to cells without test substance.
# (§1) In all cases, the experiments were carried out 4 times. The deviation in the results was less than 15%.
# [2] = system: L 1210 leukemia cells; test: In vitro cytostatic activity, colony formation (Hamburger and Salmon), 1-hour incubation; conditions: L 1210, 1 hour incubation at 37° C., then washed and plated, carried out 4 times, deviation less than 15%; for IC50: Mus musculus, L1210, read-out: IC50, Strain test, 1 hour
# Procedure: (§2) The experiment was carried out in accordance with the process of Hamburger and Salmon [New Engl. J. Med. 298, 1321-1327 (1978)]. The medium was replaced by McCoy 5A, and the number of cells was reduced to 5×10^2 cells/plate.
# In the test, the cells were incubated at 37° C. for 1 hour at various concentrations of the test substance. The cells were then washed twice with McCoy 5A solution and subsequently applied to agar plates in accordance with the method of Hamburger and Salmon. The cells were subsequently cultivated as described above, and the number of cell colonies was determined (evaluation as in a).
# (§3) The IC50 value for continuous and 1-hour incubation was determined from the dose/action curve.
# as §1
# [3] = system: L 1210 leukemia cells; test: In vitro cytostatic activity, colony formation (Hamburger and Salmon), continuous incubation; conditions: L 1210, continuous incubation, 5 to 7 days at 37° C., colonies from 60 μm, carried out 4 times, deviation less than 15%; for IC50: Mus musculus, L1210, read-out: IC50, Strain test, continuous
# Procedure: as §2
# A continuous incubation of cells with various concentrations of the test substance from Examples 1 to 5 and 5',3B,4B,4C,8-penta-O-acetylurdamycin A was carried out. The compounds to be tested were applied to the agar plates before plating-out the cell cultures. The cell cultures then grew for 5 to 7 days in the incubation in an atmosphere of 5% of CO2, 20% of O2 and 95% relative atmospheric humidity at 37° C. After this time, the number of cell colonies having a diameter from 60 μm was determined (in %) relative to the number of cell colonies which had grown in comparison without test substance.
# as §3, §1
Compound,IC50 [1] [µg/mL],IC50 [2] [µg/mL],IC50 [3] [µg/mL],"IC50, Proliferation test ([1]; L 1210, 72 hours at 37° C.) [µg/mL]","IC50, Strain test, continuous [3] [µg/mL]","IC50, Strain test, 1 hour [2] [µg/mL]"
CCCCCCCC(=O)OC1C(O)CC(OC2CCC(OC3CC(c4ccc5c(c4O)C(=O)C4=C(C5=O)C5(OC6CCC(O)C(C)O6)C(=O)CC(C)(O)CC5(O)C=C4)OC(C)C3O)OC2C)OC1C (stereo not drawn) [4B-O-Octanoylurdamycin A],< 1,0.09,–,–,–,–
"CC(=O)Oc1c(C2CC(OC3CCC(OC4CC(OC(C)=O)C(OC(C)=O)C(C)O4)C(C)O3)C(OC(C)=O)C(C)O2)ccc2c1C(=O)C1=C(C2=O)C2(OC3CCC(O)C(C)O3)C(=O)CC(C)(O)CC2(O)C=C1 (stereo not drawn) [5',3B,4B,8-Tetra-O-acetylu. A, 5',3B,4B,8-tetra-O-acetylurdamycin A]",< 1,–,0.075,–,–,–
"CC(=O)OC1CC(OC2CCC(OC3CC(c4ccc5c(c4O)C(=O)C4=C(C5=O)C5(OC6CCC(O)C(C)O6)C(=O)CC(C)(O)CC5(O)C=C4)OC(C)C3O)OC2C)OC(C)C1OC(C)=O (stereo not drawn) [3B,4B-Di-O-acetylu. A, 3B,4B-di-O-acetylurdamycin A]",< 1,0.35,0.11,–,–,–
CCCCCCCC(=O)OC1CC(OC2CCC(OC3CC(c4ccc5c(c4O)C(=O)C4=C(C5=O)C5(OC6CCC(O)C(C)O6)C(=O)CC(C)(O)CC5(O)C=C4)OC(C)C3O)OC2C)OC(C)C1O (stereo not drawn) [3B-O-Octanoylurdamycin A],< 1,0.26,–,–,–,–
"CC(=O)OC1CCC(OC23C(=O)CC(C)(O)CC2(O)C=CC2=C3C(=O)c3ccc(C4CC(OC5CCC(OC6CC(O)C(OC(C)=O)C(C)O6)C(C)O5)C(O)C(C)O4)c(O)c3C2=O)OC1C (stereo not drawn) [4B,4C-Di-O-acetylu. A, 4B,4C-di-O-acetylurdamycin A]",< 1,0.85,0.13,–,–,–
"CC(=O)OC1CC(OC2CCC(OC3CC(c4ccc5c(c4O)C(=O)C4=C(C5=O)C5(OC6CCC(O)C(C)O6)C(=O)CC(C)(O)CC5(O)C=C4)OC(C)C3O)OC2C)OC(C)C1O (stereo not drawn) [3B-O-Acetylurdamycin A, 3B-O-acetylurdamycin A]",< 1,2.2,0.28,–,–,–
"CC(=O)OC1CCC(OC23C(=O)CC(C)(O)CC2(O)C=CC2=C3C(=O)c3ccc(C4CC(OC5CCC(OC6CC(OC(C)=O)C(OC(C)=O)C(C)O6)C(C)O5)C(OC(C)=O)C(C)O4)c(O)c3C2=O)OC1C (stereo not drawn) [5',3B,4B,4C-Tetra-O-acetylu. A, 5',3B,4B,4C-tetra-O-acetylurdamycin A]",< 1,0.25,0.078,–,–,–
"3B,4B,8-tri-O-acetylurdamycin A [3B,4B,8-Tri-O-acetylu. A]",–,–,–,< 1,0.4,1.1
"CC(=O)Oc1c(C2CC(OC3CCC(OC4CC(OC(C)=O)C(OC(C)=O)C(C)O4)C(C)O3)C(OC(C)=O)C(C)O2)ccc2c1C(=O)C1=C(C2=O)C2(OC3CCC(OC(C)=O)C(C)O3)C(=O)CC(C)(O)CC2(O)C=C1 (stereo not drawn) [Penta-O-acetylu. A, 5',3B,4B,4C,8-penta-O-acetylurdamycin A, reference compound]",< 1,0.12,0.042,–,–,–
